These are literature values, as cited in patent US20210299075A1 (priority 2020, published 2021).

Series [1] concerns herpes simplex virus, rhabdovirus, and other enveloped viruses. The following applies: Poli et al.
Another series concerns adenovirus. To be noted: Poli et al.; the only naked virus tested.
The conditions of series [2]: Hendley et al.
For series [3] the following is noted: frequent application.

Take `O=C(O)CC(O)(CC(=O)O)C(=O)O` [citric acid]: in series [1], the “antiviral activity against enveloped viruses” value is given as “effective”. The “antiviral activity against adenovirus” value with adenovirus is listed as “not effective”.
As for `CCO` [ethyl alcohol], in series [2], the antiviral activity result was “performed poorly”.
For `II` [iodine], the antiviral activity entry in series [2] is “all except iodine performed poorly”. Besides, the “irritation of the skin” value in series [3] is “too irritating to the skin”.
As for `O=C(O)CC(O)C(=O)O` (stereo not drawn) [malic acid], in series [1], the “antiviral activity against enveloped viruses” value is “effective”. Also, the “antiviral activity against adenovirus” value with adenovirus is on record as “not effective”.
Take `CC(=O)C(=O)O` [pyruvic acid]: in series [1], the “antiviral activity against enveloped viruses” value was “effective”. The “antiviral activity against adenovirus” value with adenovirus was “not effective”.
As for `O=C(O)CCC(=O)O` [succinic acid], the “antiviral activity against enveloped viruses” value in series [1] was “effective”. In addition, the “antiviral activity against adenovirus” value in the series on adenovirus is “not effective”.
For “benzalkonium chloride [benzalkonium chloride (BAK)]”, the antiviral activity result in series [2] was “performed poorly”.
